One assay has as its system T cell. Set-up: species or system C57BL/6 mice. As to conditions: mouse, in vivo, ip.
Assay [1] has as its system SARS-CoV-2 Spike. Set-up: species or system  mice. As to conditions: mouse, in vivo.
In assay [2] the test system is SARS-CoV-2 Spike. Set-up: species or system C57BL/6 mice. Particulars: mouse, in vivo, ip.

`CCCCCCCCCCCC(=O)CC(=O)N[C@H](COCCCCCCCCCC)COP(=O)([O-])OCCNC(=O)NCCOP(=O)([O-])OC[C@@H](COCC[C@@H](CCCCCCC)OC(=O)CCCCCCCCCCC)NC(=O)CC(=O)CCCCCCCCCCC.[Na+].[Na+]` [Group E6020]: the “Th1-type T cell responses” value in the assay on T cell was “significantly enhanced Th1-type T cell responses”. Besides, the “IgG1 and IgG2 Ab binding titers” value in the assay with SARS-CoV-2 Spike [1] is given as “increase in IgG2 production”. The “IgG profile (IgG2/IgG1)” value in the assay with SARS-CoV-2 Spike [2] is reported as “significant higher IgG2 than with Alum alone”.
